Source: patent publication US11903932B2, “Use of dihydroberberine or its derivatives to enhance muscle function” (NANJING NUTRABUILDING BIO-TECH CO., LTD., priority 2021, dated 2024)

Key:
Type in all cases: in vivo, Sprague Dawley rats
[1] = tested on: ROS; experiment: Reactive oxygen species (ROS) test in serum and skeletal muscle; settings: HFD rats, DHB 100 and 200 mg/kg
Description: Male Sprague Dawley rats aged 6-8 weeks were housed under a 12/12 h light/dark cycle at 22° C. and given free access to water and high-fat diet (HFD, 60% kcal from fat) for 12 weeks. After the 12 weeks, all rats were randomly divided into 3 groups of 8 animals. They were supplemented with or without DHB according to the following: • (1) non-supplement group (Con HFD only, Group 1); • (2) DHB supplement group (DHB+HFD, 100 mg/kg, Group 2); • (3) DHB supplement group (DHB+HFD, 200 mg/kg, Group 3). Based on the results of decreased fiber number and insulin resistance, the mitochondrial function in skeletal muscle might be also impaired. ATP and ROS levels in serum and skeletal muscle, which represented mitochondrial function, were further determined. Reactive oxygen species (ROS) test: Ten microliters of skeletal muscle or lysate or 10 μl of serum was added to 127.5 μl of reaction buffer in 96-well plates (containing 30 mM HEPES (pH 7.2), 200 mM KCl, 1 mM MgCl2, and 7.5 μl of 2,2′-azobis(2-methylpropionamidine) dihydrochloride). The same volume of ultrapure water was pipetted into the plate as a blank. The microplate was put into a fluorescence microplate reader at 35° C. 10 μl of the fluorescent probe H2DCF-DA was added to each well for a final concentration of 40 μM immediately before reading, and the level of ROS was detected at 488 and 525 nm.

[2] = tested on: AMPK/SIRT1/PGC-1α; experiment: Western blot of AMPK/SIRT1/PGC-1α protein expression in muscle tissue; settings: HFD rats, skeletal muscle
Description: (§1) Male Sprague Dawley rats aged 6-8 weeks were housed under a 12/12 h light/dark cycle at 22° C. and given free access to water and high-fat diet (HFD, 60% kcal from fat) for 12 weeks. After the 12 weeks, all rats were randomly divided into 3 groups of 8 animals. They were supplemented with or without DHB according to the following: • (1) non-supplement group (Con HFD only, Group 1); • (2) DHB supplement group (DHB+HFD, 100 mg/kg, Group 2); • (3) DHB supplement group (DHB+HFD, 200 mg/kg, Group 3).
(§2) Before the rats were sacrificed, half the rats in each group were injected with 0.75 IU/kg body weight insulin (i.p.) to activate glucose uptake and assess the insulin resistance in the skeletal muscle. Fifteen minutes later, all the rats were anesthetized with chloral hydrate; the soleus muscles were fixed in paraformaldehyde, and the gastrocnemius muscles were frozen immediately in liquid nitrogen and stored at −80° C. for protein-related experiments.
Protein sample preparation: For total protein extraction, 100 mg of the frozen gastrocnemius muscle was homogenized in radioimmunoprecipitation assay (RIPA) buffer (containing 0.2 μg/mL PMSF and 10 μg/mL phosphatase inhibitor) for 30 min and then centrifuged at 3,500 rpm×15 min and 12,000 rpm×15 min. The supernatants were extracted for the western blot analysis.
Western blot analysis: The concentration of protein in the gastrocnemius muscle was quantitated by piercing bicinchoninic acid (BCA), and 120 μg of total protein was electrophoresed on a 12% SDS polyacrylamide gel and electro-transferred onto Polyvinylidene difluoride (PVDF) membranes. Membranes were blocked with 5% (w/v) BSA for 2 h at room temperature and then incubated with primary antibodies overnight at 4° C. with slight shaking. After being washed with TBST three times, the membranes were incubated with a secondary antibody (1:2000) at room temperature for 2 h. The protein bands were visualized by enhanced chemiluminescence with a GENE Imaging system. The images were quantified using Image Analysis Software.
Western blot was used to check the protein expression of AMPK/SIRT1/PGC-1α in the muscle tissue.

[3] = Body fat percentage by nuclear magnetic resonance body composition analyzer in high-fat diet rats; settings: HFD rats, FIG. 1
Description: Male Sprague Dawley rats aged 6-8 weeks were housed under a 12/12 h light/dark cycle at 22° C. and given free access to water and high-fat diet (HFD, 60% kcal from fat) for 12 weeks. After the 12 weeks, all rats were randomly divided into 3 groups of 8 animals. They were supplemented with or without DHB according to the following: • (1) non-supplement group (Con HFD only, Group 1); • (2) DHB supplement group (DHB+HFD, 100 mg/kg, Group 2); • (3) DHB supplement group (DHB+HFD, 200 mg/kg, Group 3). Before supplementing DHB, the muscle content of all rats was measured by nuclear magnetic resonance body composition analyzer. And then all rats were administered DHB before each major meal once daily by gavage (i.g.) in normal saline solution for 4 months. The muscle content of all rats was tested by nuclear magnetic resonance body composition analyzer every month. […] FIG. 1 is a graph of percentage of body fat of three groups of rats (Con; DHB 100 mg/kg; DHB 200 mg/kg) every month. […] Thus, DHB supplementation could achieve the beneficial effects on weight loss and increasing muscle mass.

[4] = tested on: glucose transporter type 4 (GLUT4); experiment: Insulin stimulating membrane translocation of GLUT4 in skeletal muscle by western blot; settings: HFD rats, DHB groups 100 and 200 mg/kg, especially higher dose; insulin 0.75 IU/kg i.p.; gastrocnemius muscle, FIG. 2
Description: as §1
Before the rats were sacrificed, half the rats in each group were injected with 0.75 IU/kg body weight insulin (i.p.) to activate glucose uptake and assess the insulin resistance in the skeletal muscle. […]
To assess that DHB could improve insulin resistance in the skeletal muscle, the insulin stimulating membrane translocation of glucose transporter type 4 (GLUT4) by the western blot analysis was measured and compared among the groups. […]
Western blot analysis: The concentration of protein in the gastrocnemius muscle was quantitated by piercing bicinchoninic acid (BCA), and 120 μg of total protein was electrophoresed on a 12% SDS polyacrylamide gel and electro-transferred onto Polyvinylidene difluoride (PVDF) membranes. […] The images were quantified using Image Analysis Software.

[5] = tested on: soleus muscles; experiment: HE staining of soleus, morphological changes of the skeletal muscle; settings: HFD rats, DHB supplementation groups, especially group 3 (200 mg/kg)
Description: as §1, §2
To evaluate the morphological changes of the skeletal muscle, HE staining of soleus was conducted. Hematoxylin-eosin (HE) staining: Soleus muscles were fixed in paraformaldehyde overnight, dehydrated in an ascending graded ethanol series, equilibrated with xylene, embedded in paraffin and sectioned into 5- to 10-μm slices. Then, the samples were dewaxed with xylene and a descending graded ethanol series. […]

[6] = tested on: ATP; experiment: ATP determination in serum and skeletal muscle (ELISA); settings: HFD rats
Description: Male Sprague Dawley rats aged 6-8 weeks were housed under a 12/12 h light/dark cycle at 22° C. and given free access to water and high-fat diet (HFD, 60% kcal from fat) for 12 weeks. After the 12 weeks, all rats were randomly divided into 3 groups of 8 animals. They were supplemented with or without DHB according to the following: • (1) non-supplement group (Con HFD only, Group 1); • (2) DHB supplement group (DHB+HFD, 100 mg/kg, Group 2); • (3) DHB supplement group (DHB+HFD, 200 mg/kg, Group 3). Based on the results of decreased fiber number and insulin resistance, the mitochondrial function in skeletal muscle might be also impaired. ATP and ROS levels in serum and skeletal muscle, which represented mitochondrial function, were further determined. ATP determination: The ATP concentration in the gastrocnemius muscle was measured using ELISA according to the manufacturer's instructions. Before the ELISA was tested, the gastrocnemius muscle lysates were first measured with a BCA protein assay kit, and the total protein concentration of each group was adjusted to the same by RIPA. The concentration of ATP was then calculated based on the absorption density determined at 450 nm.

In the case of `COc1ccc2c(c1OC)CN1CCc3cc4c(cc3C1=C2)OCO4` [DHB, dihydroberberine], the “ROS level in serum” value ([1]; serum, FIG. 4b) is reported as “inhibit increased ROS effectively”, the “ROS level in skeletal muscle” value ([1]; skeletal muscle, FIG. 4d) is reported as “inhibit increased ROS effectively” and the “total AMPK protein expression among the three groups” value ([2]; DHB 100 and 200 mg/kg vs control, GAPDH as internal reference, FIG. 4e) is reported as “no significant difference”. The “protein expression of p-AMPK” value ([2]; DHB groups, especially group 3 (200 mg/kg), FIG. 4e) was “dramatically upregulated”, the “protein expression of SIRT1 relative to the control group” value ([2]; group 3 (DHB 200 mg/kg), FIG. 4f) was “approximately 1.9 fold” and the “protein expression of PGC-1α relative to the control group” value ([2]; group 3 (DHB 200 mg/kg), FIG. 4g) was ~2 fold. For the same compound, the “reduction in body fat compared to control group” value ([3]; DHB 100 and 200 mg/kg i.g. once daily for 4 months) was “greater reduction in body fat”, the “decrease of percentage of body fat versus beginning of supplementation” value ([3]; higher dose group (200 mg/kg) i.g. once daily, 4 months) was “about 52%” and the “membrane translocation of GLUT4 after insulin stimulation relative to control group” value [4] was “remarkably increased”. The “number of muscle fibers compared with the control group” value ([5]; FIG. 3a) was “increased dramatically”, the “relative cross-sectional area of the muscle fibers versus control group” value ([5]; FIG. 3b) was “dropped below that of the control group” and the “production of ATP in serum relative to the control group” value ([6]; DHB 200 mg/kg, serum, FIG. 4a) was 1.6 fold. For the same compound, the “production of ATP in skeletal muscle relative to the control group” value ([6]; DHB 200 mg/kg, skeletal muscle, FIG. 4c) was 2.7 fold, the “production of ATP in serum” value ([6]; DHB treatment 100 and 200 mg/kg, serum, FIG. 4a) was “increased significantly” and the “production of ATP in skeletal muscle” value ([6]; DHB treatment 100 and 200 mg/kg, skeletal muscle, FIG. 4c) was “increased significantly”.
